# According to patent US20240423992A1, “BIOMARKERS FOR TREATING LIVER DISORDERS WITH THR-B AGONISTS AND RELATED USES” (Madrigal Pharmaceuticals, Inc., priority 2023, published 2024):
# Key:
# [1] = tested on: adults with nonalcoholic fatty liver disease (NAFLD)/presumed nonalcoholic steatohepatitis (NASH); assay: 52-week Phase 3 trial (Example 1): sex hormone levels; type: in vivo, human; conditions: Resmetirom 100 mg OL, Week 52
# Experimental: A 52-week randomized, double-blind, placebo-controlled Phase 3 trial was conducted to evaluate the safety and effect of resmetirom, an oral, once-daily, liver-targeted thyroid hormone receptor-β selective agonist, on multiple biomarkers in adults with nonalcoholic fatty liver disease (NAFLD)/presumed nonalcoholic steatohepatitis (NASH). Patients were randomized to three double-blind arms (100 mg resmetirom, 80 mg resmetirom, or placebo) or one open-label arm (100 mg resmetirom). Common concomitant medications across the 4 arms were antidiabetes drugs (such as glucagon-like peptide-1 receptor agonists (GLP-1 RAs), metformin, pioglitazone, and sodium/glucose cotransporter-2 inhibitors (SGLT2i)) and drugs to manage dyslipidemia (statins).
# Sex hormone levels after 52 weeks of resmetirom treatment are shown in Table A. Thyroid hormone levels after 52 weeks of resmetirom treatment are reported in Table B.
# [2] = tested on: patients with Nonalcoholic Steatohepatitis; assay: Phase 3 trial in Nonalcoholic Steatohepatitis (Example 2): sex hormone levels; type: in vivo, human; conditions: for Estradiol (female) LS Mean Difference / Estradiol (male) LS Mean Difference / FSH (female) LS Mean Difference / FSH (male) LS Mean Difference / Free testosterone (female) LS Mean Difference / Free testosterone (male) LS Mean Difference / LH (female) LS Mean Difference / LH (male) LS Mean Difference / SHBG (female) LS Mean Difference in % CFB / SHBG (female) LS Mean Difference in CFB / SHBG (male) LS Mean Difference in % CFB / SHBG (male) LS Mean Difference in CFB / SHBG LS Mean Difference in % CFB / SHBG LS Mean Difference in CFB / Testosterone (female) LS Mean Difference / Testosterone (male) LS Mean Difference / Estradiol (female) LS Mean CFB (SE) / Estradiol (male) LS Mean CFB (SE) / FSH (female) LS Mean CFB (SE) / FSH (male) LS Mean CFB (SE) / Free testosterone (female) LS Mean CFB (SE) / Free testosterone (male) LS Mean CFB (SE) / LH (female) LS Mean CFB (SE) / LH (male) LS Mean CFB (SE) / SHBG (female) LS Mean % CFB (SE) / SHBG (female) LS Mean CFB (SE) / SHBG (male) LS Mean % CFB (SE) / SHBG (male) LS Mean CFB (SE) / SHBG LS Mean % CFB (SE) / SHBG LS Mean CFB (SE) / Testosterone (female) LS Mean CFB (SE) / Testosterone (male) LS Mean CFB (SE): Week 52
# Experimental: A randomized, double-blind, placebo-controlled Phase 3 trial was conducted. Patients were randomly assigned to receive resmetirom 80 mg, resmetirom 100 mg, or placebo administered orally once daily. Screening biopsy results were used as baseline for histologic variables and a second biopsy was performed at Week 52.
compound,measurement,setting,value
"CC(C)c1cc(Oc2c(Cl)cc(-n3nc(C#N)c(=O)[nH]c3=O)cc2Cl)n[nH]c1=O [Resmetirom, 2-[3,5-dichloro-4-[(6-oxo-5-propan-2-yl-1H-pyridazin-3-yl)oxy]phenyl]-3,5-dioxo-1,2,4-triazine-6-carbonitrile]",SHBG (female) LSM % CFB,[1],199.3%
same,SHBG (female) LSM CFB,[1],68.6 nmol/L
same,SHBG (male) LSM % CFB,[1],156.0%
same,SHBG (male) LSM CFB,[1],44.7 nmol/L
same,SHBG LSM % CFB,[1],182.6%
same,SHBG LSM CFB,[1],60.3 nmol/L
same,Testosterone (female) LSM CFB,[1],0.1 µg/L
same,Testosterone (male) LSM CFB,[1],2.8 µg/L
same,Estradiol (female) LS Mean Difference,[2]; Resmetirom 80 mg from PBO,15.9 ng/L
same,Estradiol (male) LS Mean Difference,[2]; Resmetirom 80 mg from PBO,9.0 ng/L
same,FSH (female) LS Mean Difference,[2]; Resmetirom 80 mg from PBO,0.79 mIU/mL
same,FSH (male) LS Mean Difference,[2]; Resmetirom 80 mg from PBO,1.1 mIU/mL
same,Free testosterone (female) LS Mean Difference,[2]; Resmetirom 80 mg from PBO,0 nmol/L
same,Free testosterone (male) LS Mean Difference,[2]; Resmetirom 80 mg from PBO,0.02 nmol/L
same,LH (female) LS Mean Difference,[2]; Resmetirom 80 mg from PBO,−0.33 mIU/mL
same,LH (male) LS Mean Difference,[2]; Resmetirom 80 mg from PBO,1.8 mIU/mL
same,SHBG (female) LS Mean Difference in % CFB,[2]; Resmetirom 80 mg from PBO,177.4%
same,SHBG (female) LS Mean Difference in CFB,[2]; Resmetirom 80 mg from PBO,73.3 nmol/L
same,SHBG (male) LS Mean Difference in % CFB,[2]; Resmetirom 80 mg from PBO,107.3%
same,SHBG (male) LS Mean Difference in CFB,[2]; Resmetirom 80 mg from PBO,40.4 nmol/L
same,SHBG LS Mean Difference in % CFB,[2]; Resmetirom 80 mg from PBO,148.5%
same,SHBG LS Mean Difference in CFB,[2]; Resmetirom 80 mg from PBO,58.9 nmol/L
same,Testosterone (female) LS Mean Difference,[2]; Resmetirom 80 mg from PBO,0.15 µg/L
same,Testosterone (male) LS Mean Difference,[2]; Resmetirom 80 mg from PBO,2.2 µg/L
same,Estradiol (female) LS Mean CFB (SE),[2]; Resmetirom 80 mg,17.7 (8.0) ng/L
same,Estradiol (male) LS Mean CFB (SE),[2]; Resmetirom 80 mg,8.9 (1.3) ng/L
same,FSH (female) LS Mean CFB (SE),[2]; Resmetirom 80 mg,−0.54 (0.89) mIU/mL
same,FSH (male) LS Mean CFB (SE),[2]; Resmetirom 80 mg,1.1 (0.24) mIU/mL
same,Free testosterone (female) LS Mean CFB (SE),[2]; Resmetirom 80 mg,0 (0.001) nmol/L
same,Free testosterone (male) LS Mean CFB (SE),[2]; Resmetirom 80 mg,0.04 (0.009) nmol/L
same,LH (female) LS Mean CFB (SE),[2]; Resmetirom 80 mg,−0.93 (0.69) mIU/mL
same,LH (male) LS Mean CFB (SE),[2]; Resmetirom 80 mg,1.7 (0.30) mIU/mL
same,SHBG (female) LS Mean % CFB (SE),[2]; Resmetirom 80 mg,193.0 (15.3) %
same,SHBG (female) LS Mean CFB (SE),[2]; Resmetirom 80 mg,74.1 (6.0) nmol/L
same,SHBG (male) LS Mean % CFB (SE),[2]; Resmetirom 80 mg,108.0 (11.2) %
same,SHBG (male) LS Mean CFB (SE),[2]; Resmetirom 80 mg,41.9 (4.2) nmol/L
same,SHBG LS Mean % CFB (SE),[2]; Resmetirom 80 mg,157.5 (10.2) %
same,SHBG LS Mean CFB (SE),[2]; Resmetirom 80 mg,60.2 (4.0) nmol/L
same,Testosterone (female) LS Mean CFB (SE),[2]; Resmetirom 80 mg,0.15 (0.019) ug/L
same,Testosterone (male) LS Mean CFB (SE),[2]; Resmetirom 80 mg,2.6 (0.26) ug/L
same,Estradiol (female) LS Mean Difference,[2]; Resmetirom 100 mg from PBO,28.8 ng/L
same,Estradiol (male) LS Mean Difference,[2]; Resmetirom 100 mg from PBO,11.2 ng/L
same,FSH (female) LS Mean Difference,[2]; Resmetirom 100 mg from PBO,2.0 mIU/mL
same,FSH (male) LS Mean Difference,[2]; Resmetirom 100 mg from PBO,1.7 mIU/mL
same,Free testosterone (female) LS Mean Difference,[2]; Resmetirom 100 mg from PBO,0 nmol/L
same,Free testosterone (male) LS Mean Difference,[2]; Resmetirom 100 mg from PBO,0.01 nmol/L
same,LH (female) LS Mean Difference,[2]; Resmetirom 100 mg from PBO,1.4 mIU/mL
same,LH (male) LS Mean Difference,[2]; Resmetirom 100 mg from PBO,2.0 mIU/mL
same,SHBG (female) LS Mean Difference in % CFB,[2]; Resmetirom 100 mg from PBO,236.2%
same,SHBG (female) LS Mean Difference in CFB,[2]; Resmetirom 100 mg from PBO,93.2 nmol/L
same,SHBG (male) LS Mean Difference in % CFB,[2]; Resmetirom 100 mg from PBO,173.3%
same,SHBG (male) LS Mean Difference in CFB,[2]; Resmetirom 100 mg from PBO,59.3 nmol/L
same,SHBG LS Mean Difference in % CFB,[2]; Resmetirom 100 mg from PBO,208.4%
same,SHBG LS Mean Difference in CFB,[2]; Resmetirom 100 mg from PBO,79.4 nmol/L
same,Testosterone (female) LS Mean Difference,[2]; Resmetirom 100 mg from PBO,0.19 µg/L
same,Testosterone (male) LS Mean Difference,[2]; Resmetirom 100 mg from PBO,3.0 µg/L
same,Estradiol (female) LS Mean CFB (SE),[2]; Resmetirom 100 mg,30.6 (8.3) ng/L
same,Estradiol (male) LS Mean CFB (SE),[2]; Resmetirom 100 mg,11.0 (1.3) ng/L
same,FSH (female) LS Mean CFB (SE),[2]; Resmetirom 100 mg,0.63 (0.92) mIU/mL
same,FSH (male) LS Mean CFB (SE),[2]; Resmetirom 100 mg,1.7 (0.24) mIU/mL
same,Free testosterone (female) LS Mean CFB (SE),[2]; Resmetirom 100 mg,0 (0.001) nmol/L
same,Free testosterone (male) LS Mean CFB (SE),[2]; Resmetirom 100 mg,0.03 (0.009) nmol/L
same,LH (female) LS Mean CFB (SE),[2]; Resmetirom 100 mg,0.80 (0.72) mIU/mL
same,LH (male) LS Mean CFB (SE),[2]; Resmetirom 100 mg,1.9 (0.30) mIU/mL
same,SHBG (female) LS Mean % CFB (SE),[2]; Resmetirom 100 mg,251.8 (16.0) %
same,SHBG (female) LS Mean CFB (SE),[2]; Resmetirom 100 mg,94.0 (6.3) nmol/L
same,SHBG (male) LS Mean % CFB (SE),[2]; Resmetirom 100 mg,174.0 (10.9) %
same,SHBG (male) LS Mean CFB (SE),[2]; Resmetirom 100 mg,60.8 (4.1) nmol/L
same,SHBG LS Mean % CFB (SE),[2]; Resmetirom 100 mg,217.4 (10.3) %
same,SHBG LS Mean CFB (SE),[2]; Resmetirom 100 mg,80.7 (4.1) nmol/L
same,Testosterone (female) LS Mean CFB (SE),[2]; Resmetirom 100 mg,0.19 (0.020) ug/L
same,Testosterone (male) LS Mean CFB (SE),[2]; Resmetirom 100 mg,3.5 (0.25) ug/L
same,Change in sex hormones from baseline,[2]; in vivo,"unchanged, except for SHBG increases"
